Laboratory results: patent US20250281508A1, “CATIONIC STEROIDAL ANTIMICROBIAL SALTS” (BRIGHAM YOUNG UNIVERSITY, priority 2015, published 2025)
One block for each compound: values may come before it.

Assays:
[1] = Coating stability (sluff off) of polyurethane coatings on medical devices immersed in water; type: physicochemical
Experimental: (§1) In a first comparative test, medical devices made from various substrate materials (i.e., stainless steel, titanium, and silicone) were coated with polyurethane coatings containing either di-NDSA salts of CSA compounds (i.e., CSA-13 and/or CSA-131) or HCl acid addition salts of the same CSA compounds, and then tested for long-term stability when immersed in water. Coating stability was determined by measuring how fast the coatings began to sluff off from the medical device. The NDSA salts are di-addition salts.

[2] = Coating stability (sluff off) of silicone coatings on medical devices immersed in water; type: physicochemical
Experimental: as §1, with “second” for “first”, “silicone” for “polyurethane”, “device.” for “device. The NDSA salts are di-addition salts.”

[3] = Stability of CSA-13 salts: purity under various conditions; type: physicochemical
Experimental: Approximately 300 mg of CSA-13 was weighed into a scintillation vial. 6 mL of tetrohydrofuran was added to the vial. Hydrochloric acid (2 equivalents) was then added to the vial. […] Solids were isolated and dried at ambient temperature prior to analysis.

[4] = Elution of CSA-131 from polyurethane coating following EtO sterilization; type: physicochemical; details: for % of Total μg on OD: total CSA-131 content on OD 3976 μg; for Eluted Amount in μg/cm^3: total OD surface area 99.4 cm^2; for Average Amount Eluted: ETT polyurethane coating
Experimental: The elution rate of CSA-131 from the same polyurethane coating containing the HCl acid addition salt of CSA-131 (with solution exchange every 24 hours) is shown in Table 24: […] Moreover, elution of CSA-131 from the ETT with the same polyurethane coating containing the di-NDSA of CSA-131 remained relatively consistent for 96 hours, providing continuous activity against biofilms. This is shown by the data in Table 25.

[5] = Rate of elution of CSA from polyurethane coatings immersed in water; type: physicochemical
Source text: (§2) In a third comparative test, medical devices made from various substrate materials (i.e., stainless steel, titanium, and silicone) were coated with polyurethane coatings containing either a di-NDSA salt of a representative CSA compound (i.e., CSA-131) or the HCl acid addition salt of the same CSA compound, and then tested to determine the rate of elution of the CSA compound from the coated medical device when immersed in water.

[6] = Reactivity with ethylene oxide (EtO) in polyurethane coating, by mass spectroscopy; type: physicochemical; details: ETT with polyurethane coating sterilized multiple times with EtO
Source text: In a seventh comparative test, the elution rate and antibacterial activity of polyurethane coatings containing either the di-NDSA salt of a representative CSA compound (i.e., CSA-131) or the HCl acid addition salt of the same CSA compound following sterilization with ethylene oxide (EtO) were compared, and also the tendency of the acid addition salt of the CSA compound to react with the EtO.
For EtO reactivity with the HCl acid addition salt of CSA-131, the following percentages of CSA-131 and CSA-131-EtO adducts were observed via mass spectroscopy following EtO treatment of a medical device with a polyurethane coating containing the HCl acid addition salt of CSA-131.
Moreover, elution of CSA-131 from the ETT with the same polyurethane coating containing the di-NDSA of CSA-131 remained relatively consistent for 96 hours, providing continuous activity against biofilms. This is shown by the data in Table 25.

[7] = Rate of elution of CSA from silicone coatings immersed in water; type: physicochemical
Source text: as §2, with “fourth” for “third”, “silicone” for “polyurethane”

[8] = Rate of elution of CSA from impregnated PLGA copolymer devices immersed in water; type: physicochemical; details: impregnated PLGA copolymer device
Source text: In a fifth comparative test, medical devices were made from PLGA copolymer impregnated with either a di-NDSA salt of a representative CSA compound (i.e., CSA-131) or the HCl acid addition salt of the same CSA compound, and then tested to determine the rate of elution of the CSA compound from the medical device when immersed in water.

[9] = Dynamic vapor sorption (DVS) analysis, XRPD before and after; type: physicochemical
Source text: FIG. 9 provides an overlay of the XRPD spectrum pre- and post-DVS analysis.

[10] = Solvent solubility test (solvent addition technique); type: physicochemical
Experimental: (§3) Solubility values were estimated by a solvent addition technique, based on the following protocol: CSA-13 (20 mg) was weighed and individually distributed to 24 vials. Each solvent was added to the appropriate vial in 10 aliquots of 10 μL, 5 aliquots of 20 μL, 3 aliquots of 100 μL, and 1 aliquot of 500 μL. If complete dissolution was observed, the additions were stopped. Between additions, the sample was stirred to further encourage dissolution. If […] of solvent was added without dissolution, the solubility was calculated to be below this point. Polarized light microscopy analysis was performed on solids obtained from acetonitrile, 1,4-dioxane, ethyl acetate, isopropanol, and THF.
A solubility screen was performed as described above for the sulphate salt of CSA-13.
as §3, with “CSA-44” for “CSA-13”, “from acetone,” for “from”, “1,4-dioxane, ethanol,” for “1,4-dioxane,”, “acetate,” for “acetate, isopropanol,”, “methanol.” for “THF.”

[11] = polyurethane coating on Silicone
[12] = polyurethane coating on Stainless Steel
[13] = polyurethane coating on Titanium
[14] = silicone coating on Stainless Steel

Sluff Off Time [1, 11]: None after 30+ days | Sluff Off Time [1, 12]: None after 30+ days | Sluff Off Time [1, 13]: None after 30+ days | Sluff Off Time ([2]; silicone coating on Silicone): None after 30+ days | Sluff Off Time [2, 14]: None after 30+ days | Sluff Off Time ([2]; silicone coating on Titanium): None after 30+ days | Purity (%) ([3]; 40° C./75% RH): 97.93% | Purity (%) ([3]; 80° C.): 98.16% | Purity (%) ([3]; Ambient light): 98.57% | Purity (%) ([3]; Starting Purity): 98.52%
SMILES: CCCCCCCCNCCCC(C)C1CCC2C3C(OCCCN)CC4CC(OCCCN)CCC4(C)C3CC(OCCCN)C12C.O=S(=O)(O)c1cccc2c(S(=O)(=O)O)cccc12.O=S(=O)(O)c1cccc2c(S(=O)(=O)O)cccc12 (stereo not shown) [CSA-13 NDSA]

% of Total μg on OD ([4]; 0-24 hours): 2.37% | Eluted Amount in μg/cm^3 ([4]; 0-24 hours): 0.95 μg/cm^2 | % of Total μg on OD ([4]; 24-48 hours): 2.14% | Eluted Amount in μg/cm^3 ([4]; 24-48 hours): 0.85 μg/cm^2 | % of Total μg on OD ([4]; 48-72 hours): 1.63% | Eluted Amount in μg/cm^3 ([4]; 48-72 hours): 0.65 μg/cm^2 | % of Total μg on OD ([4]; 72-96 hours): 2.01% | Eluted Amount in μg/cm^3 ([4]; 72-96 hours): 0.81 μg/cm^2 | Average Amount Eluted ([4]; Total over 0-96 hours): 324 µg | Average Amount Eluted ([4]; time interval 0-24 hours): 94.3 µg | Average Amount Eluted ([4]; time interval 24-48 hours): 84.9 µg | Average Amount Eluted ([4]; time interval 48-72 hours): 64.9 µg | Average Amount Eluted ([4]; time interval 72-96 hours): 80.1 µg | % of Total μg on OD ([4]; Total over 0-96 hours): 8.15% | Eluted Amount in μg/cm^3 ([4]; Total over 0-96 hours): 3.26 μg/cm^2 | Time for 50% of CSA to elute [5, 11]: >7 days | Time for 50% of CSA to elute [5, 12]: >7 days | Time for 50% of CSA to elute [5, 13]: >7 days | EtO adducts observed by mass spectroscopy [6]: no EtO adducts were observed | Sluff Off Time [1, 11]: None after 30+ days | Sluff Off Time [1, 12]: None after 30+ days | Sluff Off Time [1, 13]: None after 30+ days | Solubility in Ethanol (ethanol): <0.05 mg/mL | Solubility in Water (water): <0.02 mg/mL | Time for 50% of CSA to elute ([7]; silicone coating on Silicone): >7 days | Time for 50% of CSA to elute [7, 14]: >7 days | Time for 50% of CSA to elute ([7]; silicone coating on Titanium): >7 days | Time for 50% of CSA to elute [8]: >7 days | DVS hysteresis ([9]; dynamic vapor sorption isotherm (FIG. 7)): minimal hysteresis | Sluff Off Time ([2]; silicone coating on Silicone): None after 30+ days | Sluff Off Time [2, 14]: None after 30+ days | Sluff Off Time ([2]; silicone coating on Titanium): None after 30+ days
SMILES: CCCCCCCCCCCCNCCCC(C)C1CCC2C3C(OCCCN)CC4CC(OC(=O)CCN)CCC4(C)C3CC(OCCCN)C12C.O=S(=O)(O)c1cccc2c(S(=O)(=O)O)cccc12.O=S(=O)(O)c1cccc2c(S(=O)(=O)O)cccc12 (stereo not shown) [CSA-131 NDSA]
Effect of DVS analysis on crystallinity ([9]; XRPD after DVS analysis (FIG. 8, 9)): did not significantly impact crystallinity

Approximate Solubility at 22° C. ([10]; solvent 1,4-dioxane): <11.3 mg/mL | Approximate Solubility at 22° C. ([10]; solvent 1-butanol): >37.7 mg/mL | Approximate Solubility at 22° C. ([10]; solvent 2-propanol): >20.9 mg/mL | Approximate Solubility at 22° C. ([10]; solvent Acetone): <10.5 mg/mL | Approximate Solubility at 22° C. ([10]; solvent Acetonitrile): <10.4 mg/mL | Approximate Solubility at 22° C. ([10]; solvent Dichloromethane): >193.9 mg/mL | Approximate Solubility at 22° C. ([10]; solvent Ethanol): >98.4 mg/mL | Approximate Solubility at 22° C. ([10]; solvent Methanol): >199.7 mg/mL | Approximate Solubility at 22° C. ([10]; solvent TBME): <10.1 mg/mL | Approximate Solubility at 22° C. ([10]; solvent Tetrahydrofuran): <11.0 mg/mL | Approximate Solubility at 22° C. ([10]; solvent Toluene): >102.8 mg/mL | Purity (%) ([3]; 40° C./75% RH): 97.50% | Purity (%) ([3]; 80° C.): 97.96% | Purity (%) ([3]; Ambient light): 99.76% | Purity (%) ([3]; Starting Purity): 99.34%
SMILES: CCCCCCCCNCCCC(C)C1CCC2C3C(OCCCN)CC4CC(OCCCN)CCC4(C)C3CC(OCCCN)C12C.O=S(=O)(O)O (stereo not shown) [sulphate salt of CSA-13]
